# Results taken from patent publication US7060731B2, “Use of amines” (Amersham Health AS, priority 2000, dated 2006).
# Legend:
# Type in all cases: biochemical
# [1] = test system: alternative pathway of complement (ZAS activated); assay: In vitro complement activation of human serum by Zymosan A (ZAS), comparison of meglumine analogues; details: FIG. 6
# Protocol: (§1) A method for investigation of the ability of different agents to activate the complement system in vitro is described. Briefly, human serum is exposed to the different agents for 30 min at 37Ec. The activation is stopped by placing the samples in an ice-water bath and immediately add cold EDTA-solution at a final concentration of 15 mM. The latter stops further activation by chelating calcium and magnesium ions. The degree of activation is subsequently determined by using commercially available enzyme immunoassays (EIA) for determination of specific complement activation products. In these experiments C3a-desArg or SC5b-9 have been used, representing early pathway activation and terminal pathway activation respectively.
# In order to investigate and compare the inhibitory effects on in vitro complement activation of other compounds with structural resemblance to meglumine (N-methyl-D-glucamine), a new study was performed. The new test substances chosen were N-methyl-mannosamine, 3-methylamino-1,2-propanediol and 2-(methylamino)ethanol.
# Human serum was exposed to Zymosan A (ZAS), a strong activator of the alternative pathway of complement, at three different concentrations (5, 2 and 1 mg/mL serum). The complement activation induced by ZAS alone was compared with that obtained when adding the different test substances at two different concentrations to the ZAS-activated serum. In addition to the three chosen test substances meglumine was included for comparison.
# To investigate the inhibitory effects of the test substances at a concentration corresponding to what is given of meglumine when injecting contrast agents such as Hexabrix, a concentration of 5.3 mg/mL serum was used. […] Complement activation induced by ZAS both at 2 and 1 mg/mL, was inhibited by meglumine, 3-methylamino-1,2-propanediol and 2-(methylamino)-ethanol. […] It should be noted that although the concentration of ZAS was reduced, the complement activation obtained was much higher than what would be expected in vivo. Thus meglumine, 3-methylamino-1,2-propanediol and 2-(methylamino)-ethanol seem to be very effective in controlling complement activation.
# [2] = test system: complement system (early pathway activation, C3a-desArg); assay: In vitro complement activation by X-ray contrast agents in human serum, C3a-desArg EIA; details: for inhibition of complement activation induced by Visipaque: substance added to Visipaque, human serum
# Protocol: A method for investigation of the ability of different agents to activate the complement system in vitro is described. Briefly, human serum is exposed to the different agents for 30 min at 37Ec. The activation is stopped by placing the samples in an ice-water bath and immediately add cold EDTA-solution at a final concentration of 15 mM. The latter stops further activation by chelating calcium and magnesium ions. The degree of activation is subsequently determined by using commercially available enzyme immunoassays (EIA) for determination of specific complement activation products. In these experiments C3a-desArg or SC5b-9 have been used, representing early pathway activation and terminal pathway activation respectively. The concentrations of contrast agents used in vitro in these experiments is based on the following assumptions: One of the applied clinical doses (ACD) used in vivo is 150 mL Visipaque at a concentration of 320 mg I/mL. For a person of 70 kg with a blood volume of about 5.5 L and a plasma fraction of about 3.5 L, the ACD corresponds to 13.7 mg I/mL serum in the test system. Five times this concentration (68.5 mgI/mL serum) was used for all contrast agents to cover maximum blood concentration immediately after bolus injection of the substances. Hexabrix and Visipaque with concentrations of 320 mg I/mL and phosphate buffered saline (at an equal volume) were added to human serum. Subsequently in vitro complement activation was performed as described previously followed by the determination of C3a-desArg. […] In order to investigate the effect of meglumine on complement activation, meglumine at different concentrations were added to Visipaque and in vitro complement activation was performed followed by determination of C3a-desArg. […] An expanded concentration response experiment (tighter concentration range) was subsequently performed. Ten concentrations of meglumine ranging from 0–18% (w/w) of the iodine content in Visipaque were used. […] The effects of meglumine (39% w/w of mg I/ml) on other non-ionic x-ray contrast agents were investigated. Iopamidol, Omnipaque, Ultravist and Visipaque were added to human serum at a final concentration of 68.5 mg I/mL. Subsequently in vitro complement activation was performed, followed by determination of C3a-desArg as previously described in the section “In vitro complement activation” and in Example 1.
# [3] = test system: alternative pathway of complement (Zymosan A activated, SC5b-9); assay: In vitro complement activation by Zymosan A in human serum, SC5b-9 EIA; details: Zymosan A 10 mg/mL serum, meglumine 390 mg/mL, 1 hour 37 C, FIG. 4
# Protocol: as §1
# (§2) The alternative and classical pathways represent the main ways of activating the complement system. The ability of meglumine to inhibit these pathways were investigated by using well known activators, Zymosan A (alternative pathway activator) and heat aggregated IgG (classical pathway activator). Zymosan A at 10 mg/mL serum or Zymosan A added meglumine at a final concentration of 39% (w/v) (390 mg/mL) was added to human serum and incubated for 1 hour at 37^EC on a vial roller. To obtain heat aggregated IgG, rabbit IgG at 30 mg/mL was incubated for 30 min at 65EC on a vial roller. […] The samples were analysed for SC5b-9. […]
# [4] = test system: classical pathway of complement (heat aggregated IgG activated, SC5b-9); assay: In vitro complement activation by heat aggregated IgG in human serum, SC5b-9 EIA; details: heat aggregated IgG 5 mg/mL serum, meglumine 390 mg/mL, FIG. 5
# Protocol: as §1, §2
# [5] = test system: coagulation system (extrinsic pathway); assay: Prothrombin time test (commercial)
# Protocol: (§3) As the body cascade systems are connected, the effects of meglumine on the coagulation system were investigated, by using commercial tests for prothrombin time (extrinsic pathway) and partial activated thromboplastin time (intrinsic pathway). Briefly, meglumine was added to the test systems at final concentrations of 4 mg/mL and 25 mg/mL. In the prothrombin time test meglumine increased the coagulation time by 20.5 and 72.7 seconds respectively. In the partial activated thromboplastin time test the coagulation time was increased by 6.2 and 117.9 seconds respectively. The control plasma heparin, supplied with the kit, increased the coagulation time by 36.4 seconds compared with normal plasma. Meglumine seems to prolong the coagulation time in a concentration dependent way, exceeding the time obtained for heparin plasma at the highest concentration used.
# [6] = test system: coagulation system (intrinsic pathway); assay: Partial activated thromboplastin time test (commercial)
# Protocol: as §3
# [7] = ZAS 5 mg/mL serum, test substance 390 mg/mL
# [8] = ZAS 2 and 1 mg/mL serum, test substance 5.3 mg/mL serum
SMILES,"inhibition of in vitro complement activation induced by ZAS [1, 7]","inhibition of in vitro complement activation induced by ZAS [1, 8]",inhibition of complement activation induced by Visipaque ([2]; C3a-desArg),further results
CNCCO [2-(methylamino)-ethanol],inhibited,inhibited,–,–
"CNCC(O)CO (centres unmarked) [3-methylamino-1,2-propanediol]",inhibited,inhibited,–,–
"OC[C@@H](O)[C@@H](O)[C@H](O)[C@H](O)CO [Mannitol, reference compound]",–,–,no inhibitory effects,–
CN[C@@H]1C(O)O[C@H](CO)[C@@H](O)[C@@H]1O (some centres unmarked) [N-methyl-mannosamine],inhibited,weaker inhibitory effect,–,–
"CNC[C@H](O)[C@@H](O)[C@H](O)[C@H](O)CO [meglumine, N-methyl-D-glucamine]",inhibited,inhibited,abolished the complement activation,"inhibition of Visipaque-induced complement activation after pH adjustment ([2]; Visipaque with meglumine (pH 11) vs adjusted with HCl to pH 7.4, FIG. 3): not due to the high pH; meglumine concentration at which an inhibitory effect was observed ([2]; meglumine 0–32.5% added to Visipaque, C3a-desArg, FIG. 1): 8–32.5 % (w/w) of the iodine content in Visipaque; inhibition of in vitro complement activation by non-ionic contrast agents (C3a-desArg) ([2]; meglumine 39% w/w of mg I/ml, Iopamidol, Omnipaque, Ultravist and Visipaque at 68.5 mg I/mL serum, FIG. 7): inhibited; lowest concentration of meglumine able to inhibit the complement activation ([2]; ten concentrations 0–18% (w/w) of iodine content in Visipaque, C3a-desArg, FIG. 2): 6 % of the iodine content; inhibition of alternative pathway activation of complement (SC5b-9) [3]: inhibited; inhibition of classical pathway activation of complement (SC5b-9) [4]: inhibited; increase of coagulation time, prothrombin time test ([5]; final concentration 4 mg/mL): 20.5 s; increase of coagulation time, prothrombin time test ([5]; final concentration 25 mg/mL): 72.7 s; increase of coagulation time, partial activated thromboplastin time test ([6]; final concentration 4 mg/mL): 6.2 s; increase of coagulation time, partial activated thromboplastin time test ([6]; final concentration 25 mg/mL): 117.9 s"
